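Briefly, cells in 96-well plates were exposed to five compound concentrations for 48 h, and endpoints were estimated by linear interpolation. At the GI50, growth is halved.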 Activity calls are given as the source filed them. Cut-off read from the data, not from the text of the source: active = GI50 up to about 1.1 µM and inactive = higher.
Tests used:
Assay in all cases: NCI tumour cell line growth inhibition, 48 h
[1] = tested on: A498
[2] = tested on: NCI-H226
[3] = tested on: CAKI-1
[4] = tested on: SK-MEL-5
[5] = tested on: RXF 393
[6] = tested on: PC-3
[7] = tested on: SF-539
[8] = tested on: SNB-75
[9] = tested on: M14
[10] = tested on: SK-MEL-2
[11] = tested on: HT-29
[12] = tested on: HCT-116
[13] = tested on: SF-268
[14] = tested on: SF-295
[15] = tested on: HOP-62
[16] = tested on: COLO 205
[17] = tested on: NCI/ADR-RES
[18] = tested on: EKVX
[19] = tested on: 786-0
[20] = tested on: CCRF-CEM

Measured: GI50

O=c1cc(-c2ccc(O)c(O)c2)oc2cc(O[C@H]3O[C@H](CO)[C@@H](O)[C@H](O)[C@H]3O)cc(O)c12
inactive: [1] 78.2 µM | [2] > 100 µM | [3] 89.9 µM | [4] 70.1 µM | [5] > 100 µM | [6] 70.6 µM | [7] > 100 µM | [8] 20.2 µM | [9] > 100 µM | [10] 99.8 µM | [11] 67.8 µM | [12] 28.8 µM | [13] 62.1 µM | [14] > 100 µM | [15] > 100 µM | [16] > 100 µM | [17] > 100 µM | [18] 56.6 µM | [19] > 100 µM

CN(C)Cc1cc(O)c(O)c(CN(C)C)c1
inactive: [1] > 100 µM | [2] 43.3 µM | [3] 34.4 µM | [4] 29.4 µM | [5] 50.4 µM | [6] 48.8 µM | [8] 56.6 µM | [20] 20.2 µM | [9] 22.7 µM | [10] 37.2 µM | [11] 40.2 µM | [12] 41.3 µM | [13] 35.4 µM | [14] 47 µM | [15] 37.2 µM | [16] 34.7 µM | [17] 19.3 µM | [18] 16.4 µM | [19] 31.4 µM

COc1c2c(c3c(c1CCC(=O)O)OC(C)(C)C=C3)OC(C)(C)C=C2
inactive: [1] > 100 µM | [2] 83.4 µM | [3] > 100 µM | [4] 65.2 µM | [5] > 100 µM | [6] > 100 µM | [8] > 100 µM | [9] > 100 µM | [10] > 100 µM | [11] > 100 µM | [12] 94.8 µM | [13] > 100 µM | [14] > 100 µM | [15] > 100 µM | [16] > 100 µM | [17] > 100 µM | [18] 74.3 µM | [19] > 100 µM

O=C(Nc1sccc1S(=O)(=O)c1ccccc1)c1ccccc1
inactive: [1] > 100 µM | [2] > 100 µM | [3] > 100 µM | [4] > 79.3 µM | [6] > 100 µM | [7] > 100 µM | [8] > 100 µM | [9] > 100 µM | [10] > 100 µM | [11] > 31.6 µM | [12] > 100 µM | [13] > 100 µM | [14] > 100 µM | [15] > 70.5 µM | [16] > 88.1 µM | [17] > 100 µM | [18] > 100 µM | [19] > 100 µM

CC(=O)Nc1ccc2nc(-c3ccccn3)c(-c3ccccn3)nc2c1
inactive: [1] > 100 µM | [2] > 100 µM | [3] > 100 µM | [4] > 100 µM | [5] 89.7 µM | [6] > 100 µM | [7] > 100 µM | [8] > 100 µM | [20] > 100 µM | [9] > 100 µM | [10] > 100 µM | [13] > 100 µM | [14] > 100 µM | [16] > 100 µM | [17] > 100 µM | [18] > 100 µM | [19] > 100 µM

CC1=NN(c2ccccc2Cl)C2(C1)C(Cl)C(=O)N2c1nc2ccccc2s1 (stereo not given)
inactive: [1] > 100 µM | [2] 50.5 µM | [3] 50.2 µM | [4] 32.3 µM | [5] 39.1 µM | [6] > 100 µM | [8] 20.8 µM | [9] 52.4 µM | [10] 48.9 µM | [11] 51.5 µM | [12] 44.9 µM | [13] 64.9 µM | [14] 61.8 µM | [15] 29.2 µM | [16] 61.1 µM | [17] 65 µM | [18] > 100 µM | [19] 31.8 µM

CSc1ncc2c(n1)-c1ccccc1OC2N1CCCC1 (stereo not given)
inactive: [1] 11.8 µM | [2] 31 µM | [3] 31 µM | [4] > 100 µM | [5] 64.6 µM | [6] 57.3 µM | [7] 84.5 µM | [8] 41.7 µM | [20] 58.5 µM | [9] > 100 µM | [10] > 100 µM | [11] > 100 µM | [12] > 100 µM | [13] > 100 µM | [14] > 100 µM | [16] > 100 µM | [17] 93.8 µM | [18] 42.1 µM | [19] > 100 µM

COC(=O)/C(C#N)=C(\Nc1ccccc1)N1CCCCC1
inactive: [1] > 100 µM | [2] > 100 µM | [3] > 100 µM | [4] > 100 µM | [5] > 100 µM | [6] > 100 µM | [7] > 100 µM | [8] > 100 µM | [9] > 100 µM | [10] > 100 µM | [11] > 100 µM | [12] > 100 µM | [13] > 100 µM | [14] > 100 µM | [15] > 100 µM | [16] > 100 µM | [17] > 100 µM | [18] > 100 µM | [19] > 100 µM

Cc1ccccc1C(=N)c1ccccc1Cc1cccc2ccccc12
inactive: [1] 30.8 µM | [2] 17.1 µM | [3] 31 µM | [4] 17.9 µM | [5] 5.93 µM | [6] 40.6 µM | [7] 17.6 µM | [20] 15.4 µM | [9] 34.2 µM | [10] 16.9 µM | [11] 16.1 µM | [12] 11.9 µM | [13] 20.6 µM | [14] 19.2 µM | [15] 19 µM | [16] 27.6 µM | [17] 25.7 µM | [18] 29.4 µM | [19] 19.4 µM

CCOC(=O)/C(C#N)=C/Nc1c(C)n(C)n(-c2ccccc2)c1=O
inactive: [1] > 100 µM | [2] 43.4 µM | [3] > 100 µM | [4] > 100 µM | [5] > 100 µM | [6] > 100 µM | [7] > 100 µM | [20] > 100 µM | [9] > 100 µM | [10] > 100 µM | [12] > 100 µM | [14] > 100 µM | [16] > 100 µM | [17] 47.6 µM | [18] > 100 µM | [19] > 100 µM

COc1cc(COC(=O)N2CCCCC2C(=O)O)c([N+](=O)[O-])cc1OC (stereo not given)
inactive: [1] > 100 µM | [2] > 100 µM | [4] > 100 µM | [5] > 100 µM | [6] > 100 µM | [7] > 100 µM | [8] > 100 µM | [20] > 100 µM | [9] > 100 µM | [11] > 100 µM | [12] > 100 µM | [13] > 100 µM | [14] > 100 µM | [15] > 100 µM | [16] > 100 µM | [17] > 100 µM | [18] > 100 µM | [19] > 100 µM
